How the values were obtained:
KP and KP^M cells [1] = assay: Trypan blue quantification of cell death; assay type: cell-based, mouse; details: 24 hours, indicated concentrations
Method: (§1) FIG. 1. Bortezomib inhibits NF-κB signaling and induces apoptosis in murine lung adenocarcinoma cell lines. (1A) reduction of nuclear p65 level by bortezomib. Two KP (KrasLSL-G12D/wt;p53flox/flox) cell lines (KP1 and KP2) were treated with 5 nM bortezomib (BZ) or vehicle control (ctrl) for 24 hours. Nuclear (N) and cytoplasmic (C) fractions of protein lysates were immunoblotted with the indicated antibodies. NEMO and Parp serve as cytoplasmic and nuclear loading controls, respectively. (1B) quantitative PCR analysis of a subset of NF-κB target genes in 5 nM bortezomib (BZ)-treated KP cells at the indicated time points. Vehicle control is set to 1. (1C) apoptosis in KP and KP^M (KrasLSL-G12D/wt;p53R127H/−) cells induced by bortezomib. Cells were pre-treated with 5 nM bortezomib for 24 hours, and protein lysates were immunoblotted with CC3 and tubulin antibodies. (1D) quantification of cell death in bortezomib-treated cells. Cells were treated with the indicated concentrations of bortezomib for 24 hours, and dead cells were quantified by Trypan blue staining. Error bars are SD (n=3).
As the NF-κB pathway is known to inhibit apoptosis through its regulation of antiapoptotic genes, we next addressed the cytotoxicity of bortezomib in vitro (6).

KP and KP^M cell lines = assay: Cell viability assay (Cell Titer Aqueous Kit); assay type: cell-based, mouse; details: increasing doses, 24 hours, KP and KP^M vs 3TZ and LKR13 cells
Method: FIG. 2: Bortezomib sensitivity correlates with basal NF-κB activity in KP lung adenocarcinoma cell lines. […] 3TZ, diamond; LKR13, triangle; KP, solid lines; KPM, dashed lines. Error bars are SD (n=3). (2B) lung cancer cell lines with high basal NF-κB activity were sensitive to bortezomib. NF-κB p65 DNA-binding activity was determined by ELISA from nuclear extracts of KP cell lines and LKR13 cells (set as 1). Relative viability was measured after 5 nM bortezomib treatment, as in 2A. FIG. 17: Bay-117082 induces cell death In KP cells. […] (17B) Bay-117082 induces apoptosis in KP cells. Cells were treated with 10IJM Bay-117082 for 48 hours. […] Cell culture conditions were as described recently (30).

KP lung tumors = assay: CC3 immunohistochemistry in KP lung tumors; assay type: in vivo, mouse
Method: FIG. 4: Bortezomib induces apoptosis in KP lung tumors. (4A and 4B) H&E and CC3 immunohistochemistry staining (×200) in vehicle control- and bortezomib-treated KP (4A) and K (4B) lung tumors. (4C and 4D) quantification of CC3-positive cells in bortezomib-treated KP (4C) and K (4D) lung tumors at indicated time points. “0 hour” represents vehicle control-treated tumors. Error bars are SD (n>10 for each time point).
FIG. 5: Bortezomib increases survival in KP mice. (5A and 5B) Kaplan-Meier survival curve of vehicle control and bortezomib-treated KP (5A) and K (5B) mice. Arrows indicate weekly 1 mg/kg bortezomib regimen. (5C) quantification of lung tumor volume of control- and bortezomib-treated KP mice. From 10 weeks after Adeno-Cre infection, lungs were imaged by microCT to measure individual tumor volumes (n=4). Data points represent means of fold change and SD relative to 10 weeks (set to 1). Arrows indicate bortezomib injection. D, CC3 staining (×200) in lung tumors receiving 3 doses of control (“C”) and 1 final dose of bortezomib (“B,” left) or 4 doses of bortezomib (right). Tumors were harvested 48 hours after the last treatment (n=4).
FIG. 18: Bay-117082 induces apoptosis in KP lung tumors. (18A), H&E and cleaved caspase 3 (CC3) immunohistochemistry staining (200×) in vehicle control and Bay-117082 treated KP lung tumors (10 mg/kg, 48 hrs). (18B) Quantification of CC3 positive cells. Error bars are s.d. (p<0.05).
Mice were sacrificed by carbon dioxide asphyxiation. Lungs were inflated with 4% formalin (neutral buffered formalin), fixed overnight, and transferred to 70% ethanol. Lung lobes were embedded in paraffin and sectioned at 4 μm and stained with H&E for tumor pathologic study. For staining with anti-CC3 antibodies (#9661; Cell Signaling), lung tumor sections were dewaxed, rehydrated, and subjected to high-temperature antigen retrieval—10 minutes of boiling in a pressure cooker in 0.01 M citrate buffer, pH 6.0. […] The number of positive cells per tumor area was quantified using Bioquant software from >10 tumors in ≧3 mice per group (2).

[2] = tested on: NF-κB transcription factor subunit p65; assay: Immunoblot of nuclear and cytoplasmic p65 in KP cell lines; assay type: cell-based, mouse; details: 5 nM bortezomib, 24 hours, KP1 and KP2 cell lines, vs vehicle control
Method: as §1
Cell pellets were lysed in Laemmli buffer. Equal amounts of protein (16 μg) were separated on 10% SDS-polyacrylamide gels and transferred to polyvinylidene difluoride membranes. […]

[3] = tested on: advanced NSCLC patients previously treated with chemotherapy; details: cited from earlier work
KP and KP^M cells [4] = assay: Cleaved caspase 3 (CC3) immunoblot in lung adenocarcinoma cells; assay type: cell-based, mouse; details: 5 nM bortezomib, 24 hours, KP and KP^M cells
Method: as §1
FIG. 17: Bay-117082 induces cell death In KP cells. […] (17B) Bay-117082 induces apoptosis in KP cells. Cells were treated with 10IJM Bay-117082 for 48 hours. Protein lysates were immunoblotted with cleaved caspase 3 (CC3) and Tubulin antibodies.
Cell pellets were lysed in Laemmli buffer. […]

In the case of `CC(C)C[C@H](NC(=O)[C@H](Cc1ccccc1)NC(=O)c1cnccn1)B(O)O` [bortezomib, N-(2-pyrazine) carbonyl-L-phenylalanine-L-leucine boronic acid], the “cell death by Trypan blue counting” value (KP and KP^M cells [1]) is reported as “caused cell death in a dose-dependent manner”, the “sensitivity in cell viability dose-response” value (KP and KP^M cell lines) is reported as “higher sensitivity” and the “CC3 staining after a final dose in pretreated tumors” value (KP lung tumors; KP mice, 3 previous doses of bortezomib, sacrificed 48 hours after final dose) is reported as “no longer demonstrated significant CC3 staining”. The “number of apoptotic (CC3) cells” value (KP lung tumors; KP tumors, 48 hours after a single dose) was “increase in the number of apoptotic cells”, the “time course of CC3+ cell number” value (KP lung tumors; KP tumors, single dose, time-course) was “peaked at 24 and 48 hours post treatment and diminished at 96 hours” and the “nuclear accumulation of p65” value [2] was “reduced nuclear accumulation”. The “effects in Phase II clinical trials” value [3] was “modest effects” and the “cleaved caspase 3 (CC3)” value (KP and KP^M cells [4]) was “increased cleaved caspase 3”.
